Data: ChEMBL document CHEMBL3421577, “Discovery and biological evaluation of tetrahydrothieno[2,3-c]pyridine derivatives as selective metabotropic glutamate receptor 1 antagonists for the potential treatment of neuropathic pain” (Eur J Med Chem, 2015)
Active and inactive are the calls of the source. The calls are words filed in the database; no cut-off is given here.

Legend:
[1] = molecular target: T1, Metabotropic glutamate receptor 1 (Homo sapiens, UniProt Q13255); assay: Antagonist activity at human mGluR1 expressed in human Chem-3 cells assessed as inhibition of L-glutamate-induced calcium release at 10 uM by calcium-5 reagent-based fluorescence assay relative to control; type: functional, cell-based
Target sequence in this assay (Q13255 19-1194 limits assumed): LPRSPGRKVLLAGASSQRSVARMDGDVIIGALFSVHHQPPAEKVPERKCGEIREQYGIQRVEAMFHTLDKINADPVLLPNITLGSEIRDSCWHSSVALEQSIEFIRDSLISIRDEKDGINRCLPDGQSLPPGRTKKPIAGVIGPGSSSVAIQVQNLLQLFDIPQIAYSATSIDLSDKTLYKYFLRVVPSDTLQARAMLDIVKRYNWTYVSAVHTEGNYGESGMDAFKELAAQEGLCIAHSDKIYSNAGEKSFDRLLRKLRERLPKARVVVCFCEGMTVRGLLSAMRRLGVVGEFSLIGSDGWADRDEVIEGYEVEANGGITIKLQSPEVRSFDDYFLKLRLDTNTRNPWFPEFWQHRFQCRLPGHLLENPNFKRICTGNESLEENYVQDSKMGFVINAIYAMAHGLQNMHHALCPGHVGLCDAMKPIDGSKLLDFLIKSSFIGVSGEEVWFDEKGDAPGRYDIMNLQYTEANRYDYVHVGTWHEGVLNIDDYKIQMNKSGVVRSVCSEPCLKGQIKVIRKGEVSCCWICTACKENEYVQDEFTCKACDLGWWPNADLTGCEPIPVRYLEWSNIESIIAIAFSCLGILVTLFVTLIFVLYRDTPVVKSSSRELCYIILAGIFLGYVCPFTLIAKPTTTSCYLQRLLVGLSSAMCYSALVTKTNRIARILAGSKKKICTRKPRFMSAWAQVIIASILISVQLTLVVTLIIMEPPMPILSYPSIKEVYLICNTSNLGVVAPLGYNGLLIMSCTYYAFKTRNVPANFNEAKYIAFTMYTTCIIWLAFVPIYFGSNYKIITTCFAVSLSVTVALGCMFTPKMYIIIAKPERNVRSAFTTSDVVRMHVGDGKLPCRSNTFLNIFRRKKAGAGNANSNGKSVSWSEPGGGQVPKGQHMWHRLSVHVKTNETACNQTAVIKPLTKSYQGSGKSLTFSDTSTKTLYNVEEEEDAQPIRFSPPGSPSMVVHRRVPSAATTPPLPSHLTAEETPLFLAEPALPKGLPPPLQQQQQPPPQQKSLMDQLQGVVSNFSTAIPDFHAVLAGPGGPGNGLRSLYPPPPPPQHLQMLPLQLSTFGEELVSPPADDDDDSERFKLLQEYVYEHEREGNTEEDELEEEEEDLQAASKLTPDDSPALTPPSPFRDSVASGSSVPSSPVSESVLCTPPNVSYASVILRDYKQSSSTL

[2] = molecular target: T2, Metabotropic glutamate receptor 5 (Homo sapiens, UniProt P41594); assay: Antagonist activity at human mGluR5 expressed in human embryonic kidney cells assessed as inhibition of L-glutamate-induced calcium release at 10 uM by calcium-5 reagent-based fluorescence assay relative to control; type: functional, cell-based
[3] = molecular target: T1, Metabotropic glutamate receptor 1; assay: Antagonist activity at human mGluR1 expressed in human Chem-3 cells assessed as inhibition of L-glutamate-induced calcium release by calcium-5 reagent-based fluorescence assay; type: functional, cell-based
Target sequence in this assay (Q13255 whole entry): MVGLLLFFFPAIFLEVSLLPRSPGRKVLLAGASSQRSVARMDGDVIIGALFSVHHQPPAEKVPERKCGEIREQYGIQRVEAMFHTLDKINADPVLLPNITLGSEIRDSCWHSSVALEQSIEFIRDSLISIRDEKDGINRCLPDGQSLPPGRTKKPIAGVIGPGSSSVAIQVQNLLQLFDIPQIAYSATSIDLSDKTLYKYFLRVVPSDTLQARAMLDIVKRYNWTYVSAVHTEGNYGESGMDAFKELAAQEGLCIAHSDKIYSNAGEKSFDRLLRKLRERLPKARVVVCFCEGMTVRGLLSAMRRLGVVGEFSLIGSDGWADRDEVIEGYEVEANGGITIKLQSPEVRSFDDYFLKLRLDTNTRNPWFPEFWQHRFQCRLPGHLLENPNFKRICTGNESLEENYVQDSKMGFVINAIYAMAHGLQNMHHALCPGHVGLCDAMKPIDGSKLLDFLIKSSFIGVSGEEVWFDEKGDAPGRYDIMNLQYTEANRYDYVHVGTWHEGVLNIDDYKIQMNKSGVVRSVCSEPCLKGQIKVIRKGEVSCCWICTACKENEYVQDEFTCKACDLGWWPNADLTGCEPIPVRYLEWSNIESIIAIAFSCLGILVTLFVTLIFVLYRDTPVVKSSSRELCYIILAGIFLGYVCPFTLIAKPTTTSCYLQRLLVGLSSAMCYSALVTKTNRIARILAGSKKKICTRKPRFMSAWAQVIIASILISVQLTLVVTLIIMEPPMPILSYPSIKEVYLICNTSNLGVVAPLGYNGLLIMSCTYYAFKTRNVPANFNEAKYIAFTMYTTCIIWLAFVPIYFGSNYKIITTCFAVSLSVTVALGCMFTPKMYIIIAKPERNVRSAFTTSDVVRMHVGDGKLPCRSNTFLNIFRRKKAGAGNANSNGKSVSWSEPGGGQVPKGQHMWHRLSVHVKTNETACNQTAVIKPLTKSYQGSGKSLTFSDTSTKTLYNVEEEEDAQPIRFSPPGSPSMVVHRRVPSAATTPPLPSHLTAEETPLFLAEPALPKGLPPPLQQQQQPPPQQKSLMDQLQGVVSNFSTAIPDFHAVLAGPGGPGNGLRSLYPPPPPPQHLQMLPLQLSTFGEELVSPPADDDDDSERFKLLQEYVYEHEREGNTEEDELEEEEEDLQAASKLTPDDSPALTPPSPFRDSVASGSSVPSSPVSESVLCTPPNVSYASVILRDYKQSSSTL

[4] = molecular target: T3, CYP1A2 (Homo sapiens, UniProt P05177); assay: Inhibition of recombinant human CYP1A2 assessed as remaining activity at 10 uM preincubated for 5 mins followed by substrate and NADP addition measured after 20 mins by fluorescence assay relative to control; type: ADME; settings: read-out: Activity
T3 sequence (P05177 whole entry): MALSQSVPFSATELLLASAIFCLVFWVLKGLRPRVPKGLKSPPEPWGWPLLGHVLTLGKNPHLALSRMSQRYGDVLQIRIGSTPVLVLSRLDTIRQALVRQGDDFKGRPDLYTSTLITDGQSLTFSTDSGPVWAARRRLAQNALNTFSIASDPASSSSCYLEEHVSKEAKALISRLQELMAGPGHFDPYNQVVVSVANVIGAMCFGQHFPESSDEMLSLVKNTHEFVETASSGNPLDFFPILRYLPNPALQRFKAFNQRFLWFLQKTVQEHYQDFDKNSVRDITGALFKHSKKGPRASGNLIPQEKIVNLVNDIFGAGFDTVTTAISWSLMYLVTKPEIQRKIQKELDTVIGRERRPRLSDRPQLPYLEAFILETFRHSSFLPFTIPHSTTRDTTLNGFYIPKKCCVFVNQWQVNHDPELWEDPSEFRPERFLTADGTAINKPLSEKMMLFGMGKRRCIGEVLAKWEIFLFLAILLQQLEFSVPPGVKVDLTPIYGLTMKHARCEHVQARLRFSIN

[5] = molecular target: CYP2D6 (Homo sapiens, UniProt P10635); assay: Inhibition of recombinant human CYP2D6 assessed as remaining activity at 10 uM preincubated for 5 mins followed by substrate and NADP addition measured after 20 mins by fluorescence assay relative to control; type: ADME; settings: read-out: Activity
CYP2D6, sequence (P10635 whole entry): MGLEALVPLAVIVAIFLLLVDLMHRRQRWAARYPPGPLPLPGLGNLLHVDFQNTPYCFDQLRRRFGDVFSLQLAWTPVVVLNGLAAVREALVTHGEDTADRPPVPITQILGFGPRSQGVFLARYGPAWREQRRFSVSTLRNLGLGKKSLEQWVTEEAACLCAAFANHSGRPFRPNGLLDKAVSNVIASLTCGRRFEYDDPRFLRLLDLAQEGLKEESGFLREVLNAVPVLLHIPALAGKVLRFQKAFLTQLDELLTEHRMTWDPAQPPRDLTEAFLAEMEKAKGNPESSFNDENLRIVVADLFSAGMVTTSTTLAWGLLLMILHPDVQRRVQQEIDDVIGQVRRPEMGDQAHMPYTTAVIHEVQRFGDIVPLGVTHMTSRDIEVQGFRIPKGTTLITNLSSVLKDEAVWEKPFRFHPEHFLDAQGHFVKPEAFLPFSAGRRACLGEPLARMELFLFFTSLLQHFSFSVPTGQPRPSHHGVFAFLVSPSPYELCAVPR

[6] = molecular target: CYP2C9 (Homo sapiens, UniProt P11712); assay: Inhibition of recombinant human CYP2C9 assessed as remaining activity at 10 uM preincubated for 5 mins followed by substrate and NADP addition measured after 20 mins by fluorescence assay relative to control; type: ADME; settings: read-out: Activity
CYP2C9, sequence (P11712 whole entry): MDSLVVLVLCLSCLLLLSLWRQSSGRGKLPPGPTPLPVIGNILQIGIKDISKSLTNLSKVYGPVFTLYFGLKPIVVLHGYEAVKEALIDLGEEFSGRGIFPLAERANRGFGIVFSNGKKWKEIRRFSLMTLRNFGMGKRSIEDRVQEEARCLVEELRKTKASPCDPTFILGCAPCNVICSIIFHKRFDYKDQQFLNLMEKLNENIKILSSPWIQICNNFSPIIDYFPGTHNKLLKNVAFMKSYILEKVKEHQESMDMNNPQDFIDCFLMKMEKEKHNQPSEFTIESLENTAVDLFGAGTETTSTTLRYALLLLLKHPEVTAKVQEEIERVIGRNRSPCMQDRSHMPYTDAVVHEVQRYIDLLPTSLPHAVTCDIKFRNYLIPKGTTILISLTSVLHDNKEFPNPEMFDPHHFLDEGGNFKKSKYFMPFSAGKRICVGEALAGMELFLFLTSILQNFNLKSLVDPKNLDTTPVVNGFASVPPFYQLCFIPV

[7] = molecular target: CYP3A4 (Homo sapiens, UniProt P08684); assay: Inhibition of recombinant human CYP3A4 assessed as remaining activity at 10 uM preincubated for 5 mins followed by substrate and NADP addition measured after 20 mins by fluorescence assay relative to control; type: ADME; settings: read-out: Activity
[8] = molecular target: CYP2C19 (Homo sapiens, UniProt P33261); assay: Inhibition of recombinant human CYP2C19 assessed as remaining activity at 10 uM preincubated for 5 mins followed by substrate and NADP addition measured after 20 mins by fluorescence assay relative to control; type: ADME; settings: read-out: Activity
CYP2C19, sequence (P33261 whole entry): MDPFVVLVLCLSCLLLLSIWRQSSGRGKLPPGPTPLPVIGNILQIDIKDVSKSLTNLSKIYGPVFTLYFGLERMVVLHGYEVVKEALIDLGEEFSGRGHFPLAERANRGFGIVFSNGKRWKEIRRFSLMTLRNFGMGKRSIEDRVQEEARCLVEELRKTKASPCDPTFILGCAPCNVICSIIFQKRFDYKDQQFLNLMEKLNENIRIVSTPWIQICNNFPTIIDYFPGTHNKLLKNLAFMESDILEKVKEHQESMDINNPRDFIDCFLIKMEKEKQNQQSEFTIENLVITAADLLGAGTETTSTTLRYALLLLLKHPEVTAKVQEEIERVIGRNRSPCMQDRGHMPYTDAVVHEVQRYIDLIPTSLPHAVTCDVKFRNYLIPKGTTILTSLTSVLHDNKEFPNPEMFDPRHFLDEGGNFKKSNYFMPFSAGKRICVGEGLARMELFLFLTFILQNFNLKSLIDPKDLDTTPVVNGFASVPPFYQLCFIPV

[9] = Metabolic stability in human liver microsomes assessed as compound remaining at 1 uM after 30 mins by LC-MS/MS analysis in presence of NADPH; type: ADME; settings: read-out: Stability
[10] = system: Rattus norvegicus; assay: Analgesic activity in rat spinal nerve ligation model of neuropathic pain assessed as recovery from mechanical allodynia at 100 mg/kg, po administered on day 14 post ligation surgery measured after 3 hrs relative to control; type: functional
[11] = system: Rattus norvegicus; assay: Analgesic activity in rat spinal nerve ligation model of neuropathic pain assessed as recovery from cold allodynia at 100 mg/kg, po administered on day 14 post ligation surgery measured after 1 hr relative to control; type: functional
[12] = molecular target: T2, Metabotropic glutamate receptor 5; assay: Antagonist activity at human mGluR5 expressed in human embryonic kidney cells assessed as inhibition of L-glutamate-induced calcium release by calcium-5 reagent-based fluorescence assay; type: functional, cell-based
Target sequence in this assay (P41594 whole entry): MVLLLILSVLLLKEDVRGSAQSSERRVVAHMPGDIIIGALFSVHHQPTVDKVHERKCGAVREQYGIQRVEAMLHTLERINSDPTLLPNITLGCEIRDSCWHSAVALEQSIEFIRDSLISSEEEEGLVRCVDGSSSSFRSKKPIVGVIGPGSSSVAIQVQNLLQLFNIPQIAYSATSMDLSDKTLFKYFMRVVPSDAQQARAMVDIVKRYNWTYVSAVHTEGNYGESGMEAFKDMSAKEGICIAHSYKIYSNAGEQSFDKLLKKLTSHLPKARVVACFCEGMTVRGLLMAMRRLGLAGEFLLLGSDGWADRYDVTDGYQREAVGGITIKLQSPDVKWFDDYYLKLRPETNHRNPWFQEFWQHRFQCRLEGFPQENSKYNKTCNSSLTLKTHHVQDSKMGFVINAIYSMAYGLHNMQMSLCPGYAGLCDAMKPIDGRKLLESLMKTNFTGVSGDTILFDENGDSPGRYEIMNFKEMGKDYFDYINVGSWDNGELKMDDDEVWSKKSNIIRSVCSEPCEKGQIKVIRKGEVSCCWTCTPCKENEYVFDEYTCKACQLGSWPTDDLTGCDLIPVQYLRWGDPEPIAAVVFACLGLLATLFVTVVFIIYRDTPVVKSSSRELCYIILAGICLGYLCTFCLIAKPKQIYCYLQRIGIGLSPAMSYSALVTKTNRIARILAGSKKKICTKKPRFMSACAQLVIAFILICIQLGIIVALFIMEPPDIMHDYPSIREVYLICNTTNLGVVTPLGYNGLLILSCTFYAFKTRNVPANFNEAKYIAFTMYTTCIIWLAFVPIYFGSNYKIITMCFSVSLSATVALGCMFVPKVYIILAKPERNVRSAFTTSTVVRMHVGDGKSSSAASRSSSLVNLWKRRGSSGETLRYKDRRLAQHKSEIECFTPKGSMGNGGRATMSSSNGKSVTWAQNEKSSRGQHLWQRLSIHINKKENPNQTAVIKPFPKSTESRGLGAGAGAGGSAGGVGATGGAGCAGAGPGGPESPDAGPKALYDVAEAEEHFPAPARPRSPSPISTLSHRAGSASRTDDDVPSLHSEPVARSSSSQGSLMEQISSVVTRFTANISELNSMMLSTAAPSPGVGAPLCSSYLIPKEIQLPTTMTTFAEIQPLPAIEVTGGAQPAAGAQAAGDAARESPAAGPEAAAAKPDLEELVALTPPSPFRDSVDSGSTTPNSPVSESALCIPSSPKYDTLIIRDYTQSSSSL

CC(C)c1cc(C(=O)N2CCc3c(sc(NCc4ccc(F)cc4)c3C#N)C2)[nH]n1
inhibition [1]: 40.7% | inhibition [2]: 43.1%

N#Cc1c(NCc2cccc(F)c2)sc2c1CCN(C(=O)c1ccccc1)C2
inhibition [1]: 63.9% | inhibition [2]: 44.2% | IC50 [3]: 5310 nM

N#Cc1c(NCc2cccc(F)c2)sc2c1CCN(C(=O)c1ccc(Cl)cc1)C2
inhibition [1]: 41.2% | inhibition [2]: 60%

N#Cc1c(NCc2ccccc2)sc2c1CCN(C(=O)c1ccc(F)cc1)C2
inhibition [1]: 91.5% | inhibition [2]: 26.1% | IC50 [3]: 600 nM | activity at 20 min, 10 µM [4]: 58.1% | activity at 20 min, 10 µM [5]: 42% | activity at 20 min, 10 µM [6]: 5.48% | activity at 20 min, 10 µM [7]: 20% | activity at 20 min, 10 µM [8]: 9.94% | remaining at 0.5 h, 1 µM [9]: 49.4% | Activity [10]: inactive | Activity [11]: Active

N#Cc1c(NCc2ccc(F)cc2)sc2c1CCN(C(=O)c1ccc(F)cc1)C2
inhibition [1]: 73.1% | inhibition [2]: 22.3%

COc1ccc(C(=O)N2CCc3c(sc(NCc4cccc(F)c4)c3C#N)C2)cc1
inhibition [1]: 42.8% | inhibition [2]: 69% | IC50 [12]: 4730 nM

Cc1cccc(C(=O)N2CCc3c(sc(NCc4ccccc4)c3C#N)C2)c1
inhibition [1]: 73.5% | inhibition [2]: 8.8% | IC50 [3]: 3140 nM | activity at 20 min, 10 µM [4]: 42.6% | activity at 20 min, 10 µM [5]: 35.7% | activity at 20 min, 10 µM [6]: 4.33% | activity at 20 min, 10 µM [7]: 9.36% | activity at 20 min, 10 µM [8]: 4.57% | remaining at 0.5 h, 1 µM [9]: 16.4%

COc1cccc(CNc2sc3c(c2C#N)CCN(C(=O)c2cccc(F)c2)C3)c1
inhibition [1]: 15.5% | inhibition [2]: 33.2%

NCC1(CC(=O)O)CCCCC1 [GABAPENTIN]
Activity [10]: 80% | Activity [11]: 40%

N#Cc1c(NCc2ccccc2)sc2c1CCN(C(=O)c1cnccc1F)C2
inhibition [1]: 90.1% | inhibition [2]: 16% | IC50 [3]: 1240 nM

Cc1ccc(C(=O)N2CCc3c(sc(NCc4ccccc4)c3C#N)C2)cc1
inhibition [1]: 69.7% | inhibition [2]: 24.3% | IC50 [3]: 4720 nM

Cc1cc(C(=O)N2CCc3c(sc(NC(=O)c4ccccc4)c3C#N)C2)[nH]n1
inhibition [1]: 8.51% | inhibition [2]: 27.8%

CC(C)c1cc(C(=O)N2CCc3c(sc(NC(=O)c4ccccc4)c3C#N)C2)[nH]n1
inhibition [1]: 14.6% | inhibition [2]: 39.3%

N#Cc1c(NCc2cccc(F)c2)sc2c1CCN(C(=O)c1ccc(F)cc1)C2
inhibition [1]: 82% | inhibition [2]: 36.5% | IC50 [3]: 2380 nM

CC(C)c1cc(C(=O)N2CCc3c(sc(NC(=O)c4ccc(F)cc4)c3C#N)C2)[nH]n1
inhibition [1]: 28.5% | inhibition [2]: -2.3%

COc1ccc(C(=O)Nc2sc3c(c2C#N)CCN(C(=O)c2cc(C)n[nH]2)C3)cc1
inhibition [1]: -9.58% | inhibition [2]: 28.3%

Cc1cc(C(=O)N2CCc3c(sc(NC(=O)c4ccc(F)cc4)c3C#N)C2)[nH]n1
inhibition [1]: 31% | inhibition [2]: 13.7%

COc1ccc(C(=O)Nc2sc3c(c2C#N)CCN(C(=O)c2cc(C(C)C)n[nH]2)C3)cc1
inhibition [1]: -6.42% | inhibition [2]: 63.1% | IC50 [12]: 4830 nM

N#Cc1c(NCc2ccc(Cl)cc2)sc2c1CCN(C(=O)c1ccc(F)cc1)C2
inhibition [1]: 35.2% | inhibition [2]: 25.3%

N#Cc1ccc(CNc2sc3c(c2C#N)CCN(C(=O)c2ccccc2)C3)cc1
inhibition [1]: 36.8% | inhibition [2]: 3.16%

CC(C)c1cc(C(=O)N2CCc3c(sc(NC(=O)c4ccc(Cl)cc4)c3C#N)C2)[nH]n1
inhibition [1]: 62.5% | inhibition [2]: -4.28% | IC50 [3]: 12200 nM

Cc1cc(C(=O)N2CCc3c(sc(NC(=O)c4ccc(Cl)cc4)c3C#N)C2)[nH]n1
inhibition [1]: 42.2% | inhibition [2]: -2.15%

Cc1ccc(C(=O)N2CCc3c(sc(NCc4ccc(F)cc4)c3C#N)C2)cc1
inhibition [1]: 46.6% | inhibition [2]: 37.6%

N#Cc1c(NCc2ccccc2)sc2c1CCN(C(=O)c1ccccc1)C2
inhibition [1]: 66.4% | inhibition [2]: 46% | IC50 [3]: 2820 nM

N#Cc1c(NCc2ccc(F)cc2)sc2c1CCN(C(=O)c1ccccc1)C2
inhibition [1]: 77.8% | inhibition [2]: 26.4% | IC50 [3]: 1810 nM | activity at 20 min, 10 µM [4]: 52% | activity at 20 min, 10 µM [5]: 36.4% | activity at 20 min, 10 µM [6]: 5.48% | activity at 20 min, 10 µM [7]: 24.2% | activity at 20 min, 10 µM [8]: 3.81% | remaining at 0.5 h, 1 µM [9]: 33.4%

Cc1cc(C(=O)N2CCc3c(sc(NCc4ccc(Cl)cc4)c3C#N)C2)[nH]n1
inhibition [1]: 40.9% | inhibition [2]: 31.2%

COc1ccc(C(=O)N2CCc3c(sc(NCc4ccc(F)cc4)c3C#N)C2)cc1
inhibition [1]: 47.7% | inhibition [2]: 68% | IC50 [12]: 1430 nM

Cc1cc(C(=O)N2CCc3c(sc(NCc4ccc(F)cc4)c3C#N)C2)[nH]n1
inhibition [1]: 84.2% | inhibition [2]: 37.6% | IC50 [3]: 2450 nM

CC(C)c1cc(C(=O)N2CCc3c(sc(NCc4ccc(Cl)cc4)c3C#N)C2)[nH]n1
inhibition [1]: 46.3% | inhibition [2]: 24.8%

COc1cccc(CNc2sc3c(c2C#N)CCN(C(=O)c2ccc(F)cc2)C3)c1
inhibition [1]: 67.5% | inhibition [2]: 31.1% | IC50 [3]: 3090 nM | activity at 20 min, 10 µM [4]: 78.5% | activity at 20 min, 10 µM [5]: 35% | activity at 20 min, 10 µM [6]: 6.46% | activity at 20 min, 10 µM [7]: 12.5% | activity at 20 min, 10 µM [8]: 7.99% | remaining at 0.5 h, 1 µM [9]: 12.1%

N#Cc1c(NCc2ccccc2)sc2c1CCN(C(=O)c1ccn[nH]1)C2
inhibition [1]: 94.9% | inhibition [2]: 4.48% | IC50 [3]: 1090 nM

N#Cc1c(NCc2ccc(F)cc2)sc2c1CCN(C(=O)c1ccn[nH]1)C2
inhibition [1]: 91.4% | inhibition [2]: 13.5% | IC50 [3]: 2030 nM

Cc1ccc(C(=O)N2CCc3c(sc(NCc4cccc(F)c4)c3C#N)C2)cc1
inhibition [1]: 43.9% | inhibition [2]: 54.8%

CC(C)c1cc(C(=O)N2CCc3c(sc(NCc4ccccc4)c3C#N)C2)[nH]n1
inhibition [1]: 54.4% | inhibition [2]: 8.89% | IC50 [3]: 43200 nM

N#Cc1c(NCc2ccccc2)sc2c1CCN(C(=O)c1cccc(F)c1)C2
inhibition [1]: 79% | inhibition [2]: 29.8% | IC50 [3]: 2900 nM

COc1ccc(C(=O)N2CCc3c(sc(NCc4ccc(C#N)cc4)c3C#N)C2)cc1
inhibition [1]: 10.9% | inhibition [2]: 41.5%
